Values quoted from earlier work in paper PMC6044621 (ACS Omega, 2016).

System: Cbx7
Conditions: ref 13c

UNC3866
potency as Cbx7 inhibitor: 97 nM
